# Experiments:
# Assay type in all cases: functional
# Staphylococcus aureus [1] = assay: Antibacterial activity against Staphylococcus aureus MTCC 121 assessed as zone of inhibition incubated for 24 hrs by well-plate method
# Escherichia coli [2] = assay: Antibacterial activity against Escherichia coli MTCC 40 assessed as zone of inhibition incubated for 24 hrs by well-plate method; further: test concentration or dose not given here
# Staphylococcus aureus [3] = assay: Antibacterial activity against Staphylococcus aureus MTCC 121 assessed as inhibition of bacterial growth incubated for 24 hrs by well-plate method
# Escherichia coli [4] = assay: Antibacterial activity against Escherichia coli MTCC 40 assessed as inhibition of bacterial growth incubated for 24 hrs by well-plate method
# Staphylococcus aureus [5] = assay: Antibacterial activity against Staphylococcus aureus ATCC-29213 assessed as inhibition of bacterial growth incubated for 16 hrs by agar-well diffusion assay
# Bacillus cereus [6] = assay: Antibacterial activity against Bacillus cereus ATCC-14579 assessed as zone of inhibition incubated for 24 hrs by paper disk diffusion assay
# Staphylococcus aureus [7] = assay: Antibacterial activity against Staphylococcus aureus NCTC-7447 assessed as zone of inhibition incubated for 24 hrs by paper disk diffusion assay
# Helicobacter pylori = assay: Antibacterial activity against Helicobacter pylori ATCC43504 assessed as inhibition of bacterial growth incubated for 72 hrs by micro-dilution broth assay
# Escherichia coli [8] = assay: Antibacterial activity against Escherichia coli MTCC 739 assessed as inhibition of bacterial growth incubated for 24 hrs by spectrophotometric assay
# Pseudomonas fluorescens = assay: Antibacterial activity against Pseudomonas fluorescens NCIM 2173 assessed as inhibition of bacterial growth incubated for 24 hrs by serial twofold dilution assay
# [9] = system: Sphingomonas paucimobilis; assay: Antibacterial activity against Flavobacterium devorans ATCC 10829 assessed as inhibition of bacterial growth incubated for 24 hrs by serial twofold dilution assay
# Escherichia coli [10] = assay: Antibacterial activity against Escherichia coli NCIM 2256 assessed as inhibition of bacterial growth incubated for 24 hrs by serial twofold dilution assay
# Micrococcus luteus [11] = assay: Antibacterial activity against Micrococcus luteus assessed as zone of inhibition incubated for 24 hrs by well-diffusion method
# Staphylococcus aureus [12] = assay: Antibacterial activity against Staphylococcus aureus assessed as zone of inhibition incubated for 24 hrs by well-diffusion method
# Escherichia coli [13] = assay: Antibacterial activity against Escherichia coli assessed as zone of inhibition incubated for 24 hrs by well-diffusion method
# Pseudomonas aeruginosa [14] = assay: Antibacterial activity against Pseudomonas aeruginosa assessed as zone of inhibition incubated for 24 hrs by well-diffusion method
# Staphylococcus aureus [15] = assay: Antibacterial activity against Staphylococcus aureus assessed as zone of inhibition incubated for 24 to 48 hrs by agar well diffusion assay; conditions: time 24-48 hrs
# Pseudomonas aeruginosa [16] = assay: Antibacterial activity against Pseudomonas aeruginosa assessed as zone of inhibition incubated for 24 to 48 hrs by agar well diffusion assay; conditions: time 24-48 hrs
# [17] = system: Staphylococcus epidermidis; assay: Antibacterial activity against Staphylococcus epidermidis ATCC 12228 assessed as inhibition of bacterial growth incubated for 20 hrs by broth doubling dilution assay
# Bacillus cereus [18] = assay: Antibacterial activity against Bacillus cereus ATCC 10702 assessed as inhibition of bacterial growth incubated for 20 hrs by broth doubling dilution assay
# Micrococcus luteus [19] = assay: Antibacterial activity against Micrococcus luteus ATCC 9341 assessed as inhibition of bacterial growth incubated for 20 hrs by broth doubling dilution assay
# Escherichia coli [20] = assay: Antibacterial activity against Escherichia coli MTCC 1586 assessed as zone of inhibition incubated overnight by Kirby-Bauer disc diffusion method
# Staphylococcus aureus [21] = assay: Antibacterial activity against Staphylococcus aureus MTCC 740 assessed as zone of inhibition incubated overnight by Kirby-Bauer disc diffusion method
# Bacillus cereus [22] = assay: Antibacterial activity against Bacillus cereus MTCC 430 assessed as zone of inhibition incubated overnight by Kirby-Bauer disc diffusion method
# Staphylococcus aureus [23] = assay: Antibacterial activity against Staphylococcus aureus MTCC 3160 assessed as inhibition of bacterial growth by broth micro dilution assay
# Pseudomonas aeruginosa [24] = assay: Antibacterial activity against Pseudomonas aeruginosa MTCC 1034 assessed as inhibition of bacterial growth by broth micro dilution assay
# Bacillus subtilis [25] = assay: Antibacterial activity against Bacillus subtilis assessed as zone of inhibition incubated for 24 hrs by agar diffusion assay
# Staphylococcus aureus [26] = assay: Antibacterial activity against Staphylococcus aureus assessed as zone of inhibition incubated for 24 hrs by agar diffusion assay
# Proteus vulgaris = assay: Antibacterial activity against Proteus vulgaris assessed as zone of inhibition incubated for 24 hrs by agar diffusion assay
# Bacillus subtilis [27] = assay: Antibacterial activity against Bacillus subtilis assessed as inhibition of bacterial growth by broth dilution assay
# Pseudomonas = assay: Antibacterial activity against Pseudomonas assessed as zone of inhibition; further: test concentration or dose not given here
# Escherichia coli [28] = assay: Antibacterial activity against Escherichia coli MTCC 443 assessed as inhibition of bacterial growth incubated for 18 to 20 hrs by broth microdilution assay; conditions: time 18-20 hrs
# Pseudomonas aeruginosa [29] = assay: Antibacterial activity against Pseudomonas aeruginosa assessed as inhibition of bacterial growth incubated for 24 hrs by broth microdilution assay
# Escherichia coli [30] = assay: Antibacterial activity against Escherichia coli assessed as inhibition of bacterial growth relative to control
# Staphylococcus aureus [31] = assay: Antibacterial activity against Staphylococcus aureus MTCC 96 assessed as inhibition of bacterial growth incubated for 18 to 20 hrs by broth microdilution assay; conditions: time 18-20 hrs
# Staphylococcus aureus [32] = assay: Antibacterial activity against Staphylococcus aureus assessed as inhibition of bacterial growth by broth micro dilution assay
# Bacillus = assay: Antibacterial activity against Bacillus assessed as inhibition of bacterial growth by broth micro dilution assay
# Staphylococcus aureus [33] = assay: Antibacterial activity against Staphylococcus aureus assessed as inhibition of bacterial growth by broth dilution assay
# Bacillus subtilis [34] = assay: Antibacterial activity against Bacillus subtilis assessed as inhibition of bacterial growth relative to control
# Pseudomonas aeruginosa [35] = assay: Antibacterial activity against Pseudomonas aeruginosa ATCC 27853 assessed as zone of inhibition incubated for 24 hrs by paper disk method; further: test concentration or dose not given here
# Staphylococcus aureus [36] = assay: Antibacterial activity against Staphylococcus aureus ATCC 25923 assessed as zone of inhibition incubated for 24 hrs by paper disk method
# Bacillus subtilis [37] = assay: Antibacterial activity against Bacillus subtilis ATCC 10876 assessed as zone of inhibition incubated for 24 hrs by paper disk method
# Escherichia coli [38] = assay: Antibacterial activity against Escherichia coli ATCC 25922 assessed as zone of inhibition incubated for 24 hrs by paper disk method; further: test concentration or dose not given here
# Escherichia coli [39] = assay: Antibacterial activity against Escherichia coli assessed as inhibition of bacterial growth
smiles,measurement,setting,value
O=c1oc2cc(Br)ccc2cc1-c1csc(N/N=C/c2cn(-c3ccccc3)nc2-c2cc3ccccc3oc2=O)n1,inhibition zone (IZ),Staphylococcus aureus [1],22 mm
same,inhibition zone (IZ),Escherichia coli [2],22 mm
same,MIC,Staphylococcus aureus [3],50 µg/mL
same,MIC,Escherichia coli [4],12.5 µg/mL
CC(C)(C)NC(=O)c1c(-c2ccccc2)nc(SCc2cc(=O)oc3ccc4ccccc4c23)[nH]c1=O,MIC,Staphylococcus aureus [5],2.5 µg/mL
O=c1oc2ccccc2c(O)c1-c1ccn(-c2ccccc2)n1,inhibition zone (IZ),Bacillus cereus [6],16 mm
same,inhibition zone (IZ),Staphylococcus aureus [7],20 mm
COc1ccc2c(CC(=O)O)cc(=O)oc2c1,MIC,Helicobacter pylori,49 µg/mL
CC1(C)S[C@@H]2[C@H](NC(=O)[C@H](N)c3ccccc3)C(=O)N2[C@H]1C(=O)O [AMPICILLIN],MIC,Escherichia coli [8],6.25 µg/mL
same,MIC,Pseudomonas fluorescens,4 µg/mL
same,MIC,[9],4 µg/mL
same,MIC,Escherichia coli [10],4 µg/mL
O=c1oc2ccccc2c(O)c1C(c1c(Cl)cccc1Cl)c1c(O)c2ccccc2oc1=O,inhibition zone (IZ),Micrococcus luteus [11],10 mm
same,inhibition zone (IZ),Staphylococcus aureus [12],10 mm
same,inhibition zone (IZ),Escherichia coli [13],10 mm
same,inhibition zone (IZ),Pseudomonas aeruginosa [14],10 mm
COc1cccc(/C=C/C(=O)/C=C/c2ccc(COc3cn(CCOc4cc(=O)oc5ccccc45)nn3)cc2OC)c1,inhibition zone (IZ),Staphylococcus aureus [15],8 mm
same,inhibition zone (IZ),Pseudomonas aeruginosa [16],7 mm
CN[C@@H]1[C@H](O[C@H]2[C@H](O[C@H]3[C@H](O)[C@@H](O)[C@H](N=C(N)N)[C@@H](O)[C@@H]3N=C(N)N)O[C@@H](C)[C@]2(O)C=O)O[C@@H](CO)[C@H](O)[C@H]1O [STREPTOMYCIN],inhibition zone (IZ),Staphylococcus aureus [1],20 mm
same,inhibition zone (IZ),Escherichia coli [2],22 mm
same,MIC,Staphylococcus aureus [3],12.5 µg/mL
same,MIC,Escherichia coli [4],12.5 µg/mL
CO/N=C(\C(=O)N[C@@H]1C(=O)N2C(C(=O)O)=C(COC(C)=O)CS[C@H]12)c1csc(N)n1 [CEFOTAXIME],inhibition zone (IZ),Micrococcus luteus [11],11 mm
same,inhibition zone (IZ),Staphylococcus aureus [12],11 mm
same,inhibition zone (IZ),Escherichia coli [13],11 mm
same,inhibition zone (IZ),Pseudomonas aeruginosa [14],11 mm
Cc1c(O)c(C(=O)CCc2ccccc2)c2oc(=O)cc(-c3ccccc3)c2c1O,MIC,[17],1 µg/mL
same,MIC,Bacillus cereus [18],2 µg/mL
same,MIC,Micrococcus luteus [19],2 µg/mL
CC[N+](CC)(CC)CCCCCCCCNCc1cn(Cc2cc(=O)oc3c(OC)c4c(cc23)CCC(C)(C)O4)nn1.[Br-],inhibition zone (IZ),Escherichia coli [20],2 mm
same,inhibition zone (IZ),Staphylococcus aureus [21],0 mm
CC[N+](CC)(CC)CCCCCCCCNCc1cn(Cc2cc(=O)oc3c(O)c4c(cc23)CCC(C)(C)O4)nn1.[Br-],inhibition zone (IZ),Escherichia coli [20],2 mm
same,inhibition zone (IZ),Staphylococcus aureus [21],2 mm
CC[N+](CC)(CC)CCCCCCCCCCCCNCc1cn(Cc2cc(=O)oc3cc4c(cc23)CCC(C)(C)O4)nn1.[Br-],inhibition zone (IZ),Bacillus cereus [22],24 mm
same,inhibition zone (IZ),Escherichia coli [20],8 mm
same,inhibition zone (IZ),Staphylococcus aureus [21],6 mm
Cc1cc(=O)oc2c1=CCC(O)C=2C1C(C#N)=C(N)Oc2c1c(=O)oc1ccccc21 (centres undefined),MIC,Staphylococcus aureus [23],0.4 µg/mL
same,MIC,Pseudomonas aeruginosa [24],1.6 µg/mL
COc1cc(COc2cn(CCOc3cc(=O)oc4ccccc34)nn2)ccc1/C=C/C(=O)/C=C/c1cc(OC)c(OC)c(OC)c1,inhibition zone (IZ),Staphylococcus aureus [15],7 mm
O=c1cc(OCc2cn(CN3CCN(c4ccccc4F)CC3)c(=S)s2)c2ccccc2o1,MIC,Escherichia coli [8],12.5 µg/mL
O=C(/C=C/c1cc(/N=N\c2ccc(Cl)cc2)ccc1O)c1cc2ccccc2oc1=O,inhibition zone (IZ),Bacillus subtilis [25],>17 mm
same,inhibition zone (IZ),Staphylococcus aureus [26],>17 mm
same,inhibition zone (IZ),Proteus vulgaris,>17 mm
O=C(O)c1cn(C2CC2)c2cc(N3CCNCC3)c(F)cc2c1=O [CIPROFLOXACIN],MIC,Bacillus subtilis [27],2 µg/mL
same,MIC,Staphylococcus aureus [23],1.6 µg/mL
same,inhibition zone (IZ),Pseudomonas,7.5 mm
same,MIC,Escherichia coli [28],25 µg/mL
same,MIC,Pseudomonas aeruginosa [29],49 µg/mL
same,MIC,Staphylococcus aureus [5],10 µg/mL
same,MIC,Pseudomonas aeruginosa [24],1.6 µg/mL
same,inhibition (INH),Escherichia coli [30],100%
same,MIC,Staphylococcus aureus [31],50 µg/mL
same,MIC,Staphylococcus aureus [32],2 µg/mL
same,MIC,Bacillus,2 µg/mL
same,MIC,Staphylococcus aureus [33],2 µg/mL
same,inhibition (INH),Bacillus subtilis [34],100%
Cc1cc(=O)oc2c1=CCC(Cl)C=2C1C(C#N)=C(N)Oc2c1c(=O)oc1ccccc21 (centres undefined),MIC,Staphylococcus aureus [23],0.8 µg/mL
NCC[C@H](O)C(=O)N[C@@H]1C[C@H](N)[C@@H](O[C@H]2O[C@H](CN)[C@@H](O)[C@H](O)[C@H]2O)[C@H](O)[C@H]1O[C@H]1O[C@H](CO)[C@@H](O)[C@H](N)[C@H]1O [AMIKACIN],inhibition zone (IZ),Pseudomonas aeruginosa [35],17 mm
same,inhibition zone (IZ),Staphylococcus aureus [36],20 mm
same,inhibition zone (IZ),Bacillus subtilis [37],18 mm
same,inhibition zone (IZ),Escherichia coli [38],17 mm
O=c1oc2ccccc2c(O)c1-c1cc[nH]n1,inhibition zone (IZ),Staphylococcus aureus [7],10 mm
COc1cc(COc2cn(CCOc3cc(=O)oc4ccccc34)nn2)ccc1/C=C/C(=O)/C=C/c1ccc(OC)c(OC)c1,inhibition zone (IZ),Staphylococcus aureus [15],8 mm
same,inhibition zone (IZ),Pseudomonas aeruginosa [16],7 mm
Cc1cc(=O)oc2cc(O)ccc12 [HYMECROMONE],MIC,Helicobacter pylori,50 µg/mL
CC[N+](CC)(CC)CCCCCCNCc1cn(Cc2cc(=O)oc3cc4c(cc23)CCC(C)(C)O4)nn1.[Br-],inhibition zone (IZ),Escherichia coli [20],10 mm
same,inhibition zone (IZ),Staphylococcus aureus [21],12 mm
COc1ccc(CNC(=O)COc2cc(=O)oc3ccccc23)c(OC)c1,inhibition zone (IZ),Pseudomonas aeruginosa [35],12 mm
same,inhibition zone (IZ),Staphylococcus aureus [36],10 mm
same,inhibition zone (IZ),Escherichia coli [38],13 mm
O=c1cc(OCc2cn(CN3CCN(c4ccc(F)cc4)CC3)c(=S)s2)c2ccccc2o1,MIC,Escherichia coli [8],12.5 µg/mL
C[C@H]1COc2c(N3CCN(C)CC3)c(F)cc3c(=O)c(C(=O)O)cn1c23.C[C@H]1COc2c(N3CCN(C)CC3)c(F)cc3c(=O)c(C(=O)O)cn1c23.O [LEVOFLOXACIN],MIC,Pseudomonas aeruginosa [29],3.12 µg/mL
CO/N=C(\C(=O)N[C@@H]1C(=O)N2C(C(=O)O)=C(COC(N)=O)CS[C@H]12)c1ccco1 [CEFUROXIME],MIC,Pseudomonas aeruginosa [29],98 µg/mL
COc1ccc(C(=O)C(c2c(O)c3ccccc3oc2=O)N2CCCCC2)cc1 (centres undefined),MIC,Escherichia coli [39],6.25 µg/mL
